Test [1] deals with L6. Nature of the test: Cytotoxicity against rat L6 cells. The format is cell-based.
The subject of test [2] is Leishmania donovani. Description: Antileishmanial activity against Leishmania donovani. The format is functional, organism-based.
The subject of test [3] is Plasmodium falciparum. Nature of the test: Antiplasmodial activity against Plasmodium falciparum K1. The format is functional, organism-based.
Test [4] relates to Trypanosoma cruzi. Nature of the test: Antitrypanosomal activity against Trypanosoma cruzi. The format is functional, organism-based.
Test [5] concerns Trypanosoma brucei rhodesiense. Nature of the test: Antitrypanosomal activity against Trypanosoma brucei rhodesiense. Format: functional, organism-based.

Converted amounts (≈) assume the structure as drawn. Bounds are passed on as bounds.

In test [1], `COc1cc(O)c(-c2c(C)cc(OC)c3c(O)cccc23)c2c1[C@@H](C)N(C)[C@@H](C)C2` displayed an MIC of 15.5 µg/mL (≈ 38 µM). The IC50 – broadly, the concentration at which inhibition is half-maximal – in test [2] was 18.8 µg/mL (≈ 46.1 µM); in test [3], 0.51 µg/mL (≈ 1.25 µM); in test [4], 36.4 µg/mL (≈ 89.3 µM); in test [5], 2.2 µg/mL (≈ 5.4 µM).
Consider `COc1cccc2c(-c3c(O)cc(OC)c4c(C)nc(CO)cc34)c(C)cc(O)c12` [6-O-DEMETHYLANCISTROBENOMINE A], for which, in test [1], the MIC is 59.9 µg/mL (≈ 148 µM). The IC50 in test [2] is above 30 µg/mL; in test [3], 2.18 µg/mL (≈ 5.38 µM); in test [4] it was 23.4 µg/mL (≈ 57.7 µM); in test [5] it was 14.7 µg/mL (≈ 36.3 µM).
As for `COc1cc(OC)c2c(C)nc(CO)cc2c1-c1c(C)cc(O)c2c(OC)cccc12` [ANCISTROBENOMINE A], the MIC in test [1] was 12.3 µg/mL (≈ 29.3 µM). For the same compound, the IC50 in test [2] was above 10 µg/mL; in test [3] it was 0.76 µg/mL (≈ 1.81 µM); in test [4], 4.8 µg/mL (≈ 11.4 µM); in test [5], 1.3 µg/mL (≈ 3.1 µM).
`Nc1nc(N)nc(Nc2ccc([As]3SCC(CO)S3)cc2)n1` (stereo unspecified) [MELARSOPROL]: 0.00095 µg/mL corresponded to half-maximal inhibition in test [5] (IC50).
